# Measurements from patent US20110294874A1, “DIAGNOSIS AND THERAPY OF ORGAN DYSFUNCTION USING SPHINGANINE-1-PHOSPHATE” (The Trustees of Columbia University in the City of New York, priority 2008, published 2011).
# “And” between values parts separate entries of the source, which are not always exact repeats. Equal entries are not always repeated.
# Experiments:
# [1] = test system: C57BL/6 mice subjected to liver IR; assay: Murine model of liver ischemia reperfusion (hepatic IR): plasma ALT and creatinine; type: in vivo, mouse; settings: for Serum ALT (mean) / Serum creatinine (mean): C57BL/6 mice, 60 min liver ischemia, 24 h reperfusion; for Effect of pretreatment alone on kidney injury resulting from liver IR / Effect of pretreatment alone on liver injury resulting from liver IR: antagonist alone, no Sg1P; for Effect of pre-treatment on Sg1P-mediated renal and hepatic protection after liver IR: given prior to Sg1P treatment, serum creatinine and ALT
# [2] = test system: C57BL/6 mice subjected to liver IR; assay: Kidney H&E histology after liver IR; type: in vivo, mouse; settings: pre-treatment prior to Sg1P
# Source text: Liver IR-induced AKI in mice shared similar histological changes observed in human AKI associated with liver failure, as observed in H&E slides of kidney sections taken from the mice (see FIG. 3). Multifocal acute tubular injury including individual cell necrosis involving the juxtamedullary proximal tubules of the S3 segment was observed. […] Endothelial apoptosis of peritubular capillaries was also visible in H&E sections as linear arrays of apoptotic bodies corresponding to the interstitial capillary lining endothelium. […] The number of glomeruli with detectable juxtaglomerular apparatus and the number of cells per juxtaglomerular apparatus were both increased after liver IR, indicating hyperplasia of the juxtaglomerular apparatus. […] Liver IR produced large necrotic areas of liver tissue. The average percentage of necrotic areas in liver samples taken from liver IR mice were 92%±2% (n=6), while no necrosis was found in sham-operated mice. Livers were also analyzed for the degree of hepatocellular damage.
# [3] = test system: C57BL/6 mice subjected to liver IR; assay: Liver H&E histology after liver IR (percent necrosis, Suzuki score); type: in vivo, mouse; settings: pre-treatment prior to Sg1P treatment
# Method: Mice were anesthetized with intraperitoneal pentobarbital (50 mg/kg or to effect). Mice were placed under a heating lamp and on a 37° C. heating pad. After a midline laparotomy and intraperitoneal application of 20 U heparin, left lateral and median lobes of the liver were subjected to ischemia with a microaneurysm clip occluding the hepatic triad above the bifurcation. This method of partial hepatic ischemia results in a segmental (˜70%) hepatic ischemia but spares the right lobe of the liver and prevents mesenteric venous congestion by allowing portal decompression throughout the right and caudate lobes of the liver. The liver was then repositioned in the peritoneal cavity in its original location for 60 minutes. The liver was kept moist with gauze soaked in 0.9% normal saline. The body temperature was monitored by an infrared temperature sensor (Linear Laboratories, Fremont, Calif.) every 10 min. and maintained at 37° C. using a heating lamp and a heating pad. After 60 minutes, the liver was reperfused and the wound closed. Sham-operated mice were subjected to laparotomy and identical liver manipulations without vascular occlusion. Two, 4 and 24 hr after reperfusion, plasma was collected for the measurement of alanine aminotransferase (ALT), a common indicator of liver damage, as well as creatinine (Cr) a common indicator of kidney damage. The liver tissue subjected to IR was collected to measure percent liver necrosis (2, 4 and 24 hr after IR), neutrophil infiltration (with immunohistochemistry, 4 and 24 hr after IR), apoptosis (with terminal deoxynucleotidyl transferase-mediated dUTP nick end labeling staining, caspase 3 immunoblotting and DNA laddering, 24 hr after IR), and inflammation by RT-PCR for pro-inflammatory mRNAs (4 hr after IR).
# Livers were also analyzed for the degree of hepatocellular damage using the Suzuki's criteria (Suzuki et al., Transplantation 1993, Vol. 55, pp. 1265-1272). To obtain a Suzuki score, 3 liver injury indices are graded: sinusoidal congestion (0-4), hepatocyte necrosis (0-4), and ballooning degeneration (0-4) are graded for a total score of 0-12. No necrosis, congestion, or centrilobular ballooning is given a score of 0 whereas severe congestion/ballooning and >60% lobular necrosis is given a value of 4.
# [4] = test system: SK2 KO mice subjected to liver IR; assay: Liver IR in SK2 KO mice: plasma ALT and creatinine; type: in vivo, mouse; settings: SK2KO, hepatic IR 24 h
# Method: (§1) The effects of administering Sg1P (0.1 mg/kg i.v. and 0.2 mg/kg s.c.) on liver and renal injury were also determined in the KO mice and are also shown in Tables 9 and 10 below.
# [5] = test system: SK1 KO mice subjected to liver IR; assay: Liver IR in SK1 KO mice: plasma ALT and creatinine; type: in vivo, mouse; settings: SK1KO, hepatic IR 24 h
# Method: as §1
# [6] = mouse, in vivo
# S1P1 and S1P3 receptors = settings: cited from earlier work
# [7] = test system: SK-deficient mice subjected to liver IR; assay: Liver IR in SK-deficient mice (subtype not stated); type: in vivo, mouse; settings: liver IR (data not shown)
# Method: as §1
# [8] = 0.1 mg/kg i.v. and 0.2 mg/kg s.c.
compound,measurement,setting,value
FC(F)(F)c1cccc(-c2noc(-c3cc(-c4ccccc4)c(C(F)(F)F)s3)n2)c1 [SEW2871],Serum ALT (mean),[1],6502±552 U/L
same,Serum creatinine (mean),[1],0.63 ± 0.08 mg/dL
CCCCCCc1cccc(NC(=O)[C@H](N)CCP(=O)(O)O)c1 [W146],Effect of pre-treatment on protective effects of Sg1P on renal histology,[2],reduced the protective effects
same,Necrotic areas in the liver after IR,[3],increased significantly
same,Inhibition of Sg1P-mediated renal and hepatic protection,[1]; 0.1 mg/kg (i.p.) 10 minutes prior to liver ischemia,completely inhibit
same,Serum ALT (mean),[1],24452±1760 U/L and 24451 U/L
same,Serum creatinine (mean),[1],1.6 ± 0.2 mg/dL and 1.55 mg/dL
same,Effect of pretreatment alone on kidney injury resulting from liver IR,[1],exacerbated kidney injury
same,Effect of pretreatment alone on liver injury resulting from liver IR,[1],exacerbated liver injury
same,Inhibition of Sg1P's protective effects against liver and kidney injury,[1]; pre-treatment 0.01-0.2 mg/kg,dose-dependent
Cc1nn(C)c2nc(NNC(=O)Nc3cc(Cl)nc(Cl)c3)cc(C(C)C)c12 [JTE-013],Effect of pre-treatment on Sg1P-mediated renal and hepatic protection after liver IR,[1],did not block
pertussis toxin,Effect of pre-treatment on protective effects of Sg1P on renal histology,[2],reduced the protective effects
same,Necrotic areas in the liver after IR,[3],increased significantly
same,Effect of pre-treatment on Sg1P-mediated renal and hepatic protection after liver IR,[1],prevented
CC(=N)NCCC[C@H](N)C(=O)O [L-NIO],Effect of pre-treatment on Sg1P-mediated renal and hepatic protection after liver IR,[1],had no effects
CCCCCCCCCCCC1N[C@H](C(=O)O)CS1 (some centres unmarked) [BML-241],Effect of pre-treatment on Sg1P-mediated renal and hepatic protection after liver IR,[1],did not block
"CCCCCCCCCCCCC/C=C/[C@@H](O)[C@@H](N)COP(=O)(O)O [S1P, sphingosine-1-phosphate]",Serum ALT (mean),[1],9178±1822 U/L and 9178 U/L
same,Serum creatinine (mean),[1],0.72 ± 0.13 mg/dL and 0.72 mg/dL
same,Creatinine (mean),[4],0.880 mg/dL
same,ALT (mean),[4]; [8],13165.08 U/L
same,Creatinine (mean),[5],1.035 mg/dL
same,ALT (mean),[5]; [8],17416.67 U/L
same,Rescue of serum Sg1P levels,[6],completely rescued
COc1cccc(-c2cc(=O)c3ccccc3o2)c1N [PD98059],Effect of pre-treatment on protective effects of Sg1P on renal histology,[2],reduced the protective effects
same,Necrotic areas in the liver after IR,[3],increased significantly
same,Effect of pre-treatment on Sg1P-mediated renal and hepatic protection after liver IR,[1],prevented
CCCCCCCCc1cccc(NC(=O)[C@H](N)COP(=O)(O)O)c1 [VPC],Selectivity for S1P1 (over S1P3),S1P1 and S1P3 receptors,50 fold
same,Serum ALT (mean),[1],18253 U/L
same,Serum creatinine (mean),[1],1.61 mg/dL
same,Serum ALT (mean),[1]; listed as VPC 23019,18253±1709 U/L
same,Effect of pretreatment alone on kidney injury resulting from liver IR,[1],exacerbated kidney injury
same,Effect of pretreatment alone on liver injury resulting from liver IR,[1],exacerbated liver injury
"CCCCCCCCCCCCCCC[C@@H](O)[C@@H](N)CO [Sphinganine, sphinganine]",Kidney protection,[7],failed to provide kidney protection
same,Protective effect on the liver,[7],failed to provide protective effect on the liver
same,Serum ALT (mean),[1],7170 U/L
same,Serum creatinine (mean),[1],0.58 mg/dL
same,Serum ALT (mean),[1]; listed as sphinganine,7170±1282 U/L
same,Serum creatinine (mean),[1]; listed as sphinganine,0.58 ± 0.05 mg/dL
"CCCCCCCCCCCCC/C=C/[C@@H](O)[C@@H](N)CO [Sphingosine, sphingosine]",Serum ALT (mean),[1],9269 U/L
same,Serum creatinine (mean),[1],0.76 mg/dL
same,Serum ALT (mean),[1]; listed as sphingosine,9269±583 U/L
same,Serum creatinine (mean),[1]; listed as sphingosine,0.76 ± 0.06 mg/dL
CCCCCCCCc1ccc(CCC(N)(CO)CO)cc1 [FTY720],Serum creatinine (mean),[1],0.65 ± 0.06 mg/dL
same,serum ALT,"[1]; liver IR, 1 mg/kg i.p. 30 min. prior to liver ischemia and 5 min prior to reperfusion, in U/L",6435±944
